The values that follow come from a melting point compilation (Tetko et al.; mined from patent text by program, amines drawn as free bases though some values may be those of a salt).

By melting point is commonly meant the temperature, or range, at which the solid turns liquid. The molecule `O=C1N[C@H](Cc2ccc(C(F)(F)F)cc2)[C@H](c2ccccc2F)O1` (racemic) showed a melting point of 146 to 147 °C.

Consider `C/C(=C(\C#N)C(=S)/N=C/N(C)C)N1CCCN(c2ccc(F)c(C)c2)CC1`, for which the melting point was 148 to 150 °C.

`Cn1c(COc2ccc(CC3SC(=O)NC3=O)cc2)nc2cc(Cl)cnc21` (centres undefined) had a melting point of 203 to 205 °C.

The molecule `Cc1ccc(S(=O)(=O)OCCN2Cc3ccccc3C2=O)cc1` registered a melting point of 75 °C.

`COc1ccc(-c2cccc3nc(Nc4cc(OC)c(OC)c(OC)c4)oc23)cc1` gave a melting point of 179 to 182 °C.

In turn, `O=C(O)c1cnc2oc(C(=O)O)cc2c1` showed a melting point above 315 °C.

Turning to `CSC1C(=O)Nc2ccc(Oc3cc(F)c(C(F)(F)F)c(Cl)c3)cc21` (centres undefined), the melting point lay in the range of 137 to 142 °C.

On to `O=C(O)C(=O)CC(=O)c1cccn1Cc1cc(F)ccc1F`, for which the melting point was in the range of 142 to 146 °C.

`CCCCc1nc2c(N)nc3cc(-c4ccc(OC)cc4OC)ccc3c2n1CC(C)C` came in with a melting point of 187 to 189 °C.

`Nc1ccc(CNc2ccccn2)cc1O` displayed a melting point of 136 to 138 °C.

Molecule `COc1cccc(C(=N)NN2CCc3ccccc3C2=O)c1` displayed a melting point of 176 to 177 °C.

The molecule `COC(=O)C1=C(C)NC(C)=C(P2(=O)OC(C)CC(C)O2)C1c1cccc([N+](=O)[O-])c1` (centres undefined) displayed a melting point of 225 to 226 °C.

`CC(=O)Nc1ccc(SCc2nc3ccccc3s2)cc1` returned a melting point of 147 to 149 °C.

As for `COc1cc(OC(C)(C)C(=O)O)c(C=CC(=O)c2ccc(C(=O)O)cc2)cc1-c1cccs1`, the melting point was in the range of 223 to 225 °C.

`CCCN1N=C2C(=Cc3ccccc3)CS(=O)CC2C1c1ccccc1` (centres undefined) showed a melting point of 164 to 166 °C.

Consider `CC(C)(C)C(=O)C1=C(O)C(=O)N(c2ccc(-c3ccon3)cc2)C1C1CCCCC1` (centres undefined), for which the melting point lay within 259 to 260 °C.

As for `Cc1cc(-c2cc(O)c(SCCc3ccccc3)c(=O)o2)ccc1OCc1cccnc1`, the melting point lay within 149 to 151 °C.

As to `COC(=O)Cc1c(C)n(Cc2ccc(Cl)cc2)c2ccc(OCc3ccc4ccccc4n3)cc12`, the melting point lay in the range of 132 to 134 °C.

For `COc1ccnc(CSc2nc3c(C)c(OC(F)F)c(C)cc3[nH]2)c1C`, the melting point lay in the range of 190 to 191 °C.

In turn, `COc1ccc(-c2c(Cl)c(CN3C(=O)CCC3=O)nc3sc4c(c23)CCC(=O)C4(C)C)cc1` returned a melting point of 245 to 246 °C.

`C/C=C/c1cccc2c(=O)c(C)c(C(N)=O)oc12` showed a melting point of 243 to 245 °C.

Regarding `Nc1cccc(NC(=O)C(=O)N2CCC(Cc3ccccc3)CC2)c1`, the melting point lay in the range of 103 to 105 °C.

On to `O=C(Cc1ccccc1)NCc1cccc2c1C(=O)N(C1CCC(=O)NC1=O)C2=O` (centres undefined), for which the melting point was in the range of 128 to 130 °C.

In turn, `O=C(NCCO)c1cnc(C(=O)NCCO)s1` displayed a melting point of 182 to 184 °C.

In the case of `O=C(N[C@H]1CC[C@H](CCN2CCN(c3nccc4c3CCO4)CC2)CC1)c1ccc(Cl)cc1Cl`, the melting point is 204 °C.

`CCCCCC(c1ccc(OC)cc1OC)C(C(N)=O)c1cc(C(=O)O)ccc1C(C)(C)C` (centres undefined) displayed a melting point of 153 to 154 °C.

As for `COP(=S)(OC)SCc1nc2sccn2c(=O)c1Cl`, the melting point is 125 to 130 °C.

`CCCc1c(OCC(O)COc2ccc3ccc(C(=O)O)cc3c2CCC)ccc(C(C)=O)c1O` (centres undefined) registered a melting point of 125 to 126 °C.

For `CSc1ncccc1NC(=O)CCCCCSc1nc2ccccc2[nH]1`, the melting point was 121 to 123 °C.

On to `Cc1nc(CO)ccc1CO`, for which the melting point is 94 to 96 °C.

Molecule `C#CCOc1ccc(C(=O)C=Cc2ccccc2)c(O)c1` displayed a melting point of 115 to 117 °C.

`CC(C)c1nc(-c2cc3cc(OCCNC[C@H](O)c4cccc(Cl)c4)ccc3o2)no1`: the melting point is 84 to 87 °C.

Molecule `Cc1nccn2c(-c3ccnc(NCCC(C)(C)O)n3)c(-c3ccc(F)cc3F)nc12` registered a melting point of 175 °C.

Molecule `O=C(O)COc1ccc(C(=O)Nc2ccccc2Sc2ccccc2-c2nnn[nH]2)cc1` came in with a melting point of 252 to 253 °C.
